{"source": "patent US9458161B1", "about": "“TSPO ligands for cancer imaging and treatment” (Vanderbilt University, priority 2011, dated 2016)", "key": {"TSPO [1]": {"target": "T1, TSPO (Rattus norvegicus, UniProt P16257)", "test": "In vivo PET evaluation of [18F]VUIIS-0005 in C6 glioma", "parameters": "from tissue; host or cells: C6 glioma tumour and normal brain / other tissues of living rats", "protocol": "Dynamic microPET imaging can be performed as in tumor-bearing and non-tumor-bearing rats. […] Dynamic images (120 min) are collected, followed by CT for attenuation correction and cross-platform registration. For displacement studies, ‘cold’ analog (10 mg/kg) are injected via jugular catheter 30 min after radiotracer administration. Prior to PET scanning, tumors are localized in tumor-bearing rats using MRI, including T2-weighted and diffusion-weighted scans. For longitudinal studies, tumor volumes are measured using a three-dimensional, T2-weighted fast spin-echo sequence on a Varian 9.4 T horizontal bore imaging system."}, "TSPO [2]": {"target": "T1, TSPO", "test": "Radioligand displacement of [3H]PK 11195 in C6 glioma cell / tumor lysate", "format": "binding", "parameters": "from tissue; host or cells: C6 glioma tumour and normal brain / other tissues of living rats", "details": "tumor lysate / C6 cell lysate", "protocol": "Given our focus of targeting TSPO expressed in tumors, affinity assays will be conducted in whole and fractionated tumor lysate.\nIn this Example Glioma-bearing rats were imaged with [^18F]PBR06 in a microPET system. Dynamic acquisitions were acquired simultaneously upon injection of 70-100 MBq/0.2 mL [^18F]PBR06. Over the course of scanning, arterial blood was collected to derive the input function, with HPLC radiometabolite analysis performed on selected samples for arterial input function correction. Compartmental modeling of the PET data was performed using the corrected arterial input function. Specific tumor cell binding of PBR06 was evaluated by radioligand displacement of [^3H]PK 11195 with PBR06 in vitro and by displacement of [^18F]PBR06 with excess PBR06 in vivo. Immediately following imaging, tumor tissue and adjacent healthy brain were harvested for assay of TSPO protein levels by western blotting and immunohistochemistry.\nRadioligand displacement of the high-affinity isoquinoline carboxamide TSPO ligand [^3H]PK 11195 was used to evaluate the specific binding of the non-radioactive analogue PBR06 in C6 glioma cell line homogenates in vitro (FIG. 10). […]"}}, "data": [{"compound": "COc1ccc(OC)c(CN(C(=O)CF)c2ccccc2Sc2ccccc2)c1", "note": "[[^18F]VUIIS-0005]", "values": [{"measurement": "in vivo uptake distribution (in words)", "setting": "TSPO [1]", "value": "primarily confined to tumor tissue, with significantly less normal brain uptake compared to ^18F-PBR06"}, {"measurement": "binding affinity (in words)", "setting": "TSPO [2]", "value": "improved binding affinity in tumor lysate compared to PBR06 or DPA-714"}]}]}
